How the values were obtained:
[1] = Release of cholecalciferol phosphate disodium solutions through synthetic membrane; assay type: in vitro ADME
Method: Preliminary studies were conducted to determine the best synthetic membrane for the patch release using the Franz diffusion cells. Regenerated cellulose (12-14 k molecular weight cut-off Medicell International UK) was compared to nylon (0.20 μm, Whatman, UK) using a range of donor and receiver solutions. The regenerated cellulose membrane was heated to 60° C. for 30 minutes after which the double layer of polymer (it is supplied as a dialysis membrane) was separated and mounted onto the Franz cell (FIG. 3) by sealing between the two compartments using parafilm, and 12 mm magnetic stirrers were placed into the receiver compartment. The receiver compartment was filled with either 50:50 PG:mobile phase (90:10 methanol:water pH 3.2), or 80:20 PG:distilled water, or 75 mM pH 7 saline. The cell sealing was confirmed by cell inversion and monitoring solvent back diffusion. […] The temperature of the Franz diffusion was maintained at 37° C. in a water bath, to set up the membrane temperature to 32° C. […] The 1 ml receiver fluid samples were collected and analysed by HPLC methods at different time intervals. […]

[2] = Cholecalciferol phosphate disodium patch release; assay type: in vitro ADME; details: control solution in PG, 24 h
Method: The patch was produced by mixing 82.9 μL of the adhesive, 1.92 μL of PG and the 4 mg of cholecalciferol phosphate disodium (Table 39). The patch formulation was cast into an in-house rectangular tray measuring 10 by 10 cm. The mixture was left to cure for 3-4 h. The laminate was then added to the adhesive and circles of 34 mm diameter were cut using a dye cutting machine and the release of the cholecalciferol was assessed using the Franz diffusion cells fitted with a nylon membrane over 24 h. A nylon membrane (0.20 μm) was glued to the receiver chamber and no donor chamber was employed to allow the patch to be placed directly on the surface of the nylon membrane. A cholecalciferol phosphate disodium saturated PG solution was used as a comparator with the standard Franz cell set-up previously described. The receiver fluid was 80% PG 20% water for both release testing from the solution and the patch.

cholecalciferol phosphate disodium
release through regenerated cellulose membrane ([1]; PG donor, 50:50 PG:MP (90:10 methanol:water pH 3.2) receiver): 22.0±4.6% | release through regenerated cellulose membrane ([1]; saline donor, saline receiver): 3.0±0.7% | active release from PG solution, percent of applied active [2]: 17% | active release from PG solution ([2]; nylon membrane): 512±17 μg/cm^2

— patent US20260306421A1, “SYSTEMS AND METHODS FOR TRANSDERMAN PATCH DELIVERY” (VITAMAX PATCH WHOLESALER LLC, priority 2022, published 2026)
